The text below walks through data of PubChem BioAssay (NCI).

Test systems include A549 NSCLC; BT-549 breast; EKVX NSCLC; HL-60(TB) leukemia; HOP-62 NSCLC; HS 578T breast; MDA-MB-435; OVCAR-5 ovarian; RPMI-8226 leukemia; SK-MEL-28 melanoma.
What all share (assay): NCI anticancer screen, dose series, 48 h

Several values for one entry are separate records, joined by “and”; a condition that tells them apart may be missing. Equal values may be shown once.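 Protocol summary: plate cells (96-well), add compound at 5 concentrations, incubate 48 h, interpolate endpoints linearly. GI50 is the concentration that inhibits growth by half. TGI denotes the concentration required for complete inhibition of growth.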

For `C=C(C=O)C1CC(=O)C(C(=O)OC)[C@@H]2O[C@@](C)(CC2=O)C[C@@H]2OC(=O)[C@]3(O[C@@H]23)[C@@H](C(=O)OC)C1` (some centres undefined), the GI50 is 29000 nM in the assay on A549 NSCLC; 21700 nM in the assay on BT-549 breast; 27200 nM in the assay on EKVX NSCLC; 20100 nM with HL-60(TB) leukemia; 25600 nM with HOP-62 NSCLC; 32800 nM in the assay on HS 578T breast. In addition, the GI50 in the assay on MDA-MB-435 is 14300 nM; in the assay on OVCAR-5 ovarian, 23100 nM; with RPMI-8226 leukemia, 4160 nM; in the assay with SK-MEL-28 melanoma, 20200 nM. For the same molecule, the TGI in the assay on A549 NSCLC is 67100 nM; in the assay on BT-549 breast, 55000 nM; in the assay with EKVX NSCLC it was 95100 nM; with HL-60(TB) leukemia, 53500 nM; in the assay with HOP-62 NSCLC it was 58800 nM; in the assay on HS 578T breast, more than 100000 nM. In addition, the TGI in the assay on MDA-MB-435 stood at 33000 nM; in the assay on OVCAR-5 ovarian it was 51200 nM; in the assay with RPMI-8226 leukemia, 21800 nM; with SK-MEL-28 melanoma, 66500 nM.
As to `COc1cc(C)c(C(=O)O[C@H]2[C@H](O[C@H]3[C@@H](O)COC(O[C@H]4C[C@H]5[C@@H]6CC=C7C[C@@H](O)CC[C@]7(C)[C@H]6CC[C@]5(C)[C@H]4[C@H](C)C(=O)CCC(C)C)[C@@H]3OC(C)=O)OC[C@@H](O)[C@@H]2O)c(C)c1` (some centres undefined), the GI50 was less than 10 nM with A549 NSCLC; less than 10 nM in the assay with BT-549 breast; 1060 nM with EKVX NSCLC; 16 nM with HL-60(TB) leukemia; 12.5 nM in the assay with HOP-62 NSCLC; less than 10 nM in the assay on HS 578T breast. In addition, the GI50 in the assay on MDA-MB-435 is less than 10 nM; in the assay on OVCAR-5 ovarian, 580 nM; with RPMI-8226 leukemia, less than 10 nM; in the assay on SK-MEL-28 melanoma it was less than 10 nM. The TGI in the assay with A549 NSCLC is 30500 nM; in the assay with BT-549 breast, 5500 nM; in the assay with EKVX NSCLC, 15100 nM; with HL-60(TB) leukemia, 20000 nM; in the assay on HOP-62 NSCLC, 3650 nM; in the assay on HS 578T breast, 161 nM. Moreover, the TGI was 130 nM in the assay with MDA-MB-435, 18500 nM in the assay with OVCAR-5 ovarian, less than 10 nM with RPMI-8226 leukemia and 19.2 nM in the assay with SK-MEL-28 melanoma.
As for `CCSc1oc(-c2ccccc2)nc1[P+](c1ccccc1)(c1ccccc1)c1ccccc1`, the GI50 in the assay with A549 NSCLC was 301 nM; with BT-549 breast, 281 nM; in the assay with EKVX NSCLC, 289 nM; in the assay on HL-60(TB) leukemia, 149 nM; in the assay on HOP-62 NSCLC, 308 nM; with HS 578T breast it was 314 nM. Besides, the GI50 in the assay with MDA-MB-435 is 308 nM; in the assay on OVCAR-5 ovarian, 416 nM; with RPMI-8226 leukemia, 135 nM; in the assay on SK-MEL-28 melanoma it was 467 nM. In addition, the TGI with A549 NSCLC was found to be 4710 nM; in the assay with BT-549 breast, 1680 nM; in the assay on EKVX NSCLC, 1840 nM; in the assay on HL-60(TB) leukemia, 469 nM; with HOP-62 NSCLC it was 1870 nM; in the assay with HS 578T breast it was 2720 nM. The TGI in the assay with MDA-MB-435 came to 1120 nM; in the assay with OVCAR-5 ovarian it was 6360 nM; in the assay on RPMI-8226 leukemia, 520 nM; in the assay with SK-MEL-28 melanoma, 2320 nM.
Turning to `CC(C)C[C@H](NC(=O)[C@H](CCc1ccccc1)NC(=O)CN1CCOCC1)C(=O)N[C@@H](Cc1ccccc1)C(=O)N[C@@H](CC(C)C)C(=O)[C@@]1(C)CO1`, the GI50 was 20.3 nM in the assay with A549 NSCLC; less than 10 nM in the assay with BT-549 breast; 56.6 nM in the assay on EKVX NSCLC; 26.8 nM in the assay with HL-60(TB) leukemia; less than 13.9 nM with HOP-62 NSCLC; 22.4 nM in the assay on HS 578T breast. The GI50 was less than 10 nM with MDA-MB-435, 25.5 nM with OVCAR-5 ovarian, less than 10 nM in the assay with RPMI-8226 leukemia and 47.5 nM with SK-MEL-28 melanoma. Besides, the TGI in the assay on A549 NSCLC is 204 nM; in the assay with BT-549 breast it was 24.2 nM; in the assay on HL-60(TB) leukemia, 93 nM; in the assay on HOP-62 NSCLC, less than 22.9 nM; in the assay with HS 578T breast, 3340 nM; in the assay with MDA-MB-435, 17.3 nM. In addition, the TGI is 112 nM in the assay on OVCAR-5 ovarian and 1570 nM in the assay with SK-MEL-28 melanoma.
In the case of `O=P(Oc1ccc(Cl)cc1)(Oc1ccc(Cl)cc1)N1CC1`, the TGI in the assay with A549 NSCLC, in the assay on BT-549 breast, in the assay with EKVX NSCLC, in the assay on HL-60(TB) leukemia, in the assay with HOP-62 NSCLC and in the assay with HS 578T breast was more than 10000 nM throughout. For the same molecule, the TGI with MDA-MB-435, with OVCAR-5 ovarian, in the assay on RPMI-8226 leukemia and with SK-MEL-28 melanoma was more than 10000 nM throughout.
Consider `C#CCN1C(=O)/C(=c2\sc3n(c2=O)C2C(NN=3)N(CC)C(=O)N2CC)c2ccccc21` (centres undefined), for which the GI50 was 968 nM in the assay on A549 NSCLC; 568 nM in the assay with BT-549 breast; 1800 nM with EKVX NSCLC; 271 nM in the assay with HL-60(TB) leukemia; 868 nM in the assay with HOP-62 NSCLC; 368 nM in the assay with HS 578T breast. The GI50 in the assay on MDA-MB-435 is 214 nM; in the assay with OVCAR-5 ovarian, 1210 nM; with RPMI-8226 leukemia, 375 nM; in the assay on SK-MEL-28 melanoma, 734 nM. The TGI is more than 100000 nM in the assay on A549 NSCLC; 12400 nM with BT-549 breast; more than 100000 nM with EKVX NSCLC; 775 nM with HL-60(TB) leukemia; more than 52600 nM in the assay with HOP-62 NSCLC; 32800 nM in the assay on HS 578T breast. Also, the TGI was 507 nM in the assay on MDA-MB-435, more than 100000 nM with OVCAR-5 ovarian and more than 100000 nM with SK-MEL-28 melanoma.
Regarding `NC(=O)CCC(NC(=O)OCc1ccccc1)C(=O)OCC(=O)c1ccccc1` (centres undefined), the GI50 in the assay with A549 NSCLC, in the assay on BT-549 breast, in the assay with EKVX NSCLC, with HL-60(TB) leukemia, in the assay with HOP-62 NSCLC and in the assay on HS 578T breast was more than 100000 nM in each case. The GI50 with MDA-MB-435 was more than 100000 nM; in the assay with OVCAR-5 ovarian, more than 100000 nM; in the assay with RPMI-8226 leukemia, more than 100000 nM; in the assay with SK-MEL-28 melanoma, 43900 nM. In addition, the TGI in the assay on A549 NSCLC, in the assay with BT-549 breast, in the assay with EKVX NSCLC, in the assay on HL-60(TB) leukemia, in the assay with HOP-62 NSCLC and in the assay on HS 578T breast was more than 100000 nM in each case. Moreover, the TGI in the assay with MDA-MB-435, in the assay with OVCAR-5 ovarian, in the assay on RPMI-8226 leukemia and in the assay with SK-MEL-28 melanoma was more than 100000 nM throughout.
Turning to `C/C1=C\[C@H](C)C[C@H](C)OC(=O)C[C@H](c2ccc(O)cc2)NC(=O)[C@@H](Cc2c(Br)[nH]c3ccccc23)N(C)C(=O)[C@H](C)NC(=O)[C@@H](C)C1`, the GI50 in the assay with A549 NSCLC was 31.8 nM; in the assay on EKVX NSCLC it was 132 nM; with HL-60(TB) leukemia, 17.6 nM; in the assay with HOP-62 NSCLC it was 88.3 nM; with HS 578T breast, 45.1 nM; in the assay on MDA-MB-435, 44.5 nM. For the same molecule, the GI50 is 261 nM with OVCAR-5 ovarian, less than 17.6 nM in the assay with RPMI-8226 leukemia and 27.2 nM in the assay on SK-MEL-28 melanoma. Also, the TGI with BT-549 breast was 66.9 nM; with EKVX NSCLC, 746 nM and 1830 nM; in the assay on HL-60(TB) leukemia, 384 nM and 175 nM; in the assay on HOP-62 NSCLC it was 443 nM and 369 nM; in the assay with HS 578T breast, 606 nM and 134 nM; with MDA-MB-435 it was 17700 nM. Also, the TGI with OVCAR-5 ovarian was more than 20300 nM; in the assay with SK-MEL-28 melanoma, 308 nM and 1740 nM.
